Test: xn = mol fraction of the nth substance listed
Conditions: 101 kPa, Liquid; for mass density: Vibrating tube method; for viscosity: Falling or rolling sphere viscometry

CC(C)CO [2-methyl-1-propanol] + CCC(C)O
Conditions	mass density [kg/m3]	viscosity [mPa·s]
303.15 K, x2 = 0.1009	794.484	–
303.15 K, x2 = 0.2	794.891	–
303.15 K, x2 = 0.3008	795.309	–
303.15 K, x2 = 0.4	795.723	–
303.15 K, x2 = 0.5002	796.151	–
303.15 K, x2 = 0.5999	796.585	–
303.15 K, x2 = 0.7004	797.029	–
303.15 K, x2 = 0.8007	797.475	–
303.15 K, x2 = 0.9005	797.918	–
308.15 K, x2 = 0.1009	790.501	2.443
308.15 K, x2 = 0.2	790.872	2.386
308.15 K, x2 = 0.3008	791.253	2.337
308.15 K, x2 = 0.4	791.633	2.292
308.15 K, x2 = 0.5002	792.024	2.248
308.15 K, x2 = 0.5999	792.423	2.206
308.15 K, x2 = 0.7004	792.831	2.168
308.15 K, x2 = 0.8007	793.242	2.139
308.15 K, x2 = 0.9005	793.65	2.127
313.15 K, x2 = 0.1009	786.45	2.107
313.15 K, x2 = 0.2	786.78	2.053
313.15 K, x2 = 0.3008	787.122	2.005
313.15 K, x2 = 0.4	787.465	1.962
313.15 K, x2 = 0.5002	787.818	1.92
313.15 K, x2 = 0.5999	788.177	1.881
313.15 K, x2 = 0.7004	788.546	1.845
313.15 K, x2 = 0.8007	788.917	1.816
313.15 K, x2 = 0.9005	789.288	1.804
318.15 K, x2 = 0.1009	782.34	1.824
318.15 K, x2 = 0.2	782.624	1.772
318.15 K, x2 = 0.3008	782.922	1.727
318.15 K, x2 = 0.4	783.222	1.685
318.15 K, x2 = 0.5002	783.533	1.646
318.15 K, x2 = 0.5999	783.848	1.608
318.15 K, x2 = 0.7004	784.171	1.575
318.15 K, x2 = 0.8007	784.497	1.551
318.15 K, x2 = 0.9005	784.827	1.54
323.15 K, x2 = 0.1009	778.155	1.59
323.15 K, x2 = 0.2	778.391	1.544
323.15 K, x2 = 0.3008	778.641	1.5
323.15 K, x2 = 0.4	778.895	1.46
323.15 K, x2 = 0.5002	779.158	1.422
323.15 K, x2 = 0.5999	779.423	1.387
323.15 K, x2 = 0.7004	779.696	1.357
323.15 K, x2 = 0.8007	779.974	1.336
323.15 K, x2 = 0.9005	780.258	1.326
328.15 K, x2 = 0.1009	773.896	1.393
328.15 K, x2 = 0.2	774.077	1.35
328.15 K, x2 = 0.3008	774.275	1.309
328.15 K, x2 = 0.4	774.479	1.27
328.15 K, x2 = 0.5002	774.689	1.235
328.15 K, x2 = 0.5999	774.903	1.204
328.15 K, x2 = 0.7004	775.122	1.178
328.15 K, x2 = 0.8007	775.348	1.161
328.15 K, x2 = 0.9005	775.581	1.152
333.15 K, x2 = 0.1009	769.551	1.225
333.15 K, x2 = 0.2	769.674	1.186
333.15 K, x2 = 0.3008	769.816	1.148
333.15 K, x2 = 0.4	769.965	1.112
333.15 K, x2 = 0.5002	770.119	1.079
333.15 K, x2 = 0.5999	770.277	1.051
333.15 K, x2 = 0.7004	770.441	1.029
333.15 K, x2 = 0.8007	770.611	1.014
333.15 K, x2 = 0.9005	770.793	1.006
338.15 K, x2 = 0.1009	765.116	1.082
338.15 K, x2 = 0.2	765.18	1.047
338.15 K, x2 = 0.3008	765.264	1.012
338.15 K, x2 = 0.4	765.355	0.9794
338.15 K, x2 = 0.5002	765.452	0.9497
338.15 K, x2 = 0.5999	765.551	0.9246
338.15 K, x2 = 0.7004	765.654	0.9053
338.15 K, x2 = 0.8007	765.765	0.8922
338.15 K, x2 = 0.9005	765.89	0.8861
343.15 K, x2 = 0.1009	760.581	0.9613
343.15 K, x2 = 0.2	760.585	0.9301
343.15 K, x2 = 0.3008	760.608	0.8988
343.15 K, x2 = 0.4	760.64	0.8691
343.15 K, x2 = 0.5002	760.676	0.8429
343.15 K, x2 = 0.5999	760.714	0.8207
343.15 K, x2 = 0.7004	760.754	0.8035
343.15 K, x2 = 0.8007	760.802	0.7921
343.15 K, x2 = 0.9005	760.867	0.7862

Source: the NIST ThermoML archive (doi:10.1021/je400423u)
